Results reported in patent publication US7264932B2, “Nuclease inhibitor cocktail” (Applera Corporation, priority 1999, dated 2007).

What was measured:
nuclease = nuclease (Homo sapiens, UniProt P03950); test: Ki of Lead 1 and Lead 2 analogs (Tables 1 and 2); format: biochemical; details: Table 1, Lead 1 Analog List
bovine RNase A [1] = target: T1, bovine RNase A (Bos taurus, UniProt P61823); test: Intactness of total RNA (RNA LabChip), bovine RNase A; format: biochemical; details: 100 uM BpB, 8.3 pg/ul bovine RNase A
T1 sequence (P61823 27-150): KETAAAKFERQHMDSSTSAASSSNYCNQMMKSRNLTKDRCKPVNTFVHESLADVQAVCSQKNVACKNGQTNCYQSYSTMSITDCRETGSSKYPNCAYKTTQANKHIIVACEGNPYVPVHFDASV
Protocol: (§1) A total of 100 pg/ul e. […].
(§2) Mouse pancreatic tissue (5 mg) was disrupted in 50 ul of 24 mM Hepes, pH 7.2, 50 mM NaCl, 1 mM MgCl2. The diluted lysate (1:20,000) was pre-incubated with 50 uM Benzopurpurin B (BpB) for 30 sec and then added to 100 ng/ul mouse liver total RNA (Ambion) and incubated at 23 C for an additional 4 min. Samples were quenched in a guanidinium lysis buffer, and the RNA purified via MEGAclear™ MAG-96 and eluted with 20 ul nuclease-free water. […] These experiments were conducted in the same fashion except that 100 uM BpB was employed. The sample (1 ul) was analyzed by 2100 BioAnalyzer software (Agilent) after separation on an RNA LabChip.
(§3) Pancreatic tissue (5 mg) was dounced in 50 ul of 24 mM Hepes, pH 7.2, 50 mM NaCl, 1 mM MgCl2. The lysate was diluted (1:20,000) and then pre-incubated with 200 uM of 467929. […] All samples were pre-incubated for 30 sec before being added to 100 ng/ul mouse liver total RNA (Ambion) and incubated at 23C for an additional 4 min. The RNA was then immediately purified via MEGAclear™ MAG-96 and eluted with 20 ul nuclease-free water. The recovered RNA (1 ul) was analyzed by 2100 BioAnalyzer software after separation on an RNA LabChip.

diluted pancreas lysate = test: Intactness of total RNA (RNA LabChip), diluted pancreas lysate; format: biochemical, mouse; details: pancreas lysate 1:20,000, 23 C 4 min
Protocol: as §1
Pancreatic lysate (0.1 mg/ml) was diluted 1:20,000 in 24 mM Hepes, pH 7.2, 50 mM NaCl, 1 mM MgCl2 and pre-incubated with either 1% SDS or 6.25 mM OVA for 30 s prior to the addition of 2 ug mouse liver total RNA. Reactions were incubated at 25 C for an additional 4 min, quenched, and analyzed on an RNA LabChip.
as §2
Mouse pancreatic tissue (5 mg) was dounced in 50 ul of 24 mM Hepes, pH 7.2, 50 mM NaCl, 1 mM MgCl2. A diluted lysate (1:20,000) was pre-incubated with 100 uM BpB or the analog Benzopurpurin 4B (Bp4B) for 30 sec and then added to 100 ng/ul mouse liver total RNA (Ambion) and incubated at 23 C for an additional 4 min. Samples were quenched in a guanidinium lysis buffer, and the RNA purified via MEGAclear™ MAG-96 and eluted with 20 ul nuclease-free water. The sample (1 ul) was analyzed by 2100 BioAnalyzer software (Agilent) after separation on an RNA LabChip.
as §3

[2] = target: eosinophil-derived neurotoxin (EDN) (Homo sapiens, UniProt P10153); test: Intactness of total RNA (RNA LabChip), EDN; format: biochemical; details: 100 uM BpB, 1 ng/ul EDN
[3] = target: T2, human pancreatic RNase (HPR) (Homo sapiens, UniProt P07998); test: Intactness of total RNA (RNA LabChip), HPR; format: biochemical; details: 100 uM BpB, 1 ng/ul HPR
T2 sequence (P07998 29-156): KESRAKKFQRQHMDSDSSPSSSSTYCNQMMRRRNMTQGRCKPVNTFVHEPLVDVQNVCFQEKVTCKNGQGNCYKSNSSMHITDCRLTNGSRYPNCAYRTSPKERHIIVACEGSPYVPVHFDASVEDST

E. coli RNase I = E. coli RNase I (Escherichia coli, UniProt P21338); test: Intactness of total RNA (RNA LabChip), E. coli RNase I; format: biochemical; details: 100 uM BpB, 7 ng/ul E. coli RNase I
DNase I = DNase I (Bos taurus, UniProt P00639); test: Lambda DNA digestion assay with DNase I; format: biochemical; details: 0.02 U DNase I, 1 ug lambda DNA, 10 min at 37C
Text: One application for small molecule RNase inhibitors is as an RNA control agent during enzymatic manipulation of solutions containing RNA. These reactions include in vitro transcription, in vitro translation, DNase digestion, and reverse transcription, among others. […] […] […] All reactions were quenched with EDTA and the cleavage products resolved on a 1% agarose gel.
As a result, compounds such as #467929, 140553, and 180582 may have utility in curbing the activity of residual RNases that may carry over from RNA isolation methods during DNase treatments of the RNA.

[4] = test system: one-step RT-PCR with MMLV-RT and SuperTaq, target hGAPDH; test: One-step qRT-PCR tolerance, hGAPDH; format: biochemical
Protocol: To evaluate the compatibility of Benzopurpurin B and 4B in RT-PCR applications, 100 nM, 1 uM, 10 uM, and 25 uM were tested in Ambion's MessageSensor RT-PCR Kit using the supplier's instructions and using primers/probe designed to amplify a 226 nt amplicon from the human GAPDH mRNA. Reaction conditions: 20-ul one-step RT-PCR with MMLV-RT (0.4 U/ul final) and SuperTaq (0.04 U/ul final). Cycling conditions: Stage 1. 42 C for 15 minutes, Stage 2. 95 C for 5 min, Stage 3. 95 C-15 sec and 60 C-60 sec, where Stage 3 is repeated 40 times. […] The compound was tolerated at 10 uM or lower with no significant loss of sensitivity (Table 16).

bovine RNase A [5] = target: T1, bovine RNase A; test: Ki determination by Dixon analysis (RNaseAlert); format: biochemical; details: 74 pM RNase A, 40 nM RNaseAlert substrate, pH 7.0
Text: To measure the inhibition constant of compound #467929 against bovine RNase A, Dixon analysis was used to determine the relationship between RNase activity and inhibitor concentration. The […] fluorescence assay (Ambion) was used to quantify RNase activity.

MMLV RT RNase H = MMLV RT RNase H (Moloney murine leukemia virus, UniProt P03355); test: RT-based RNase H cleavage of RNA:DNA hybrid; format: biochemical
Protocol: As described above, Chembridge compound #467929 offered protection from several RNA-specific endonucleolytic activities. […] A 20-mer DNA oligonucleotide was asymmetrically annealed to a 1500 base synthetic RNA to create an RNA:DNA duplex substrate for RNase H. Reactions were initiated with 10 U of MMLV RT in 1× RT buffer (50 mM TrisCl pH 8.3, 75 mM KC, 3 mM MgCl2, 5 mM DTT) containing 500 ng/ul RNA:DNA hybrid. All reactions contained 5% DMSO either with or without the small molecule RNase inhibitor. Samples were incubated for 5 min at 37 C, and quenched with EDTA. Products were resolved on an RNA LabChip. Cleavage products were observed as two equally represented RNA species of 1000 and 500 bases. Product length and yield were determined using the 2100 BioAnalyzer software (Agilent). Table 18 details the level of inhibition of MMLV RT RNase H that is observed as a function of the concentration of compounds 467929 and 227726.

Sequence of DNase I (P00639 23-282): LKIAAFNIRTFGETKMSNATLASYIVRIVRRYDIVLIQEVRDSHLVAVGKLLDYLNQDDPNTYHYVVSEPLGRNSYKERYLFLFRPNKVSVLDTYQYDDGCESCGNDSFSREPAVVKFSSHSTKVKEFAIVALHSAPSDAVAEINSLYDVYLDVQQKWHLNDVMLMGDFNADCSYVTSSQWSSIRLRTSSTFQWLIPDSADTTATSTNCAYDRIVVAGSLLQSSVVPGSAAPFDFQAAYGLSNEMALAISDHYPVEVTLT
Sequence of E. coli RNase I (P21338 24-268): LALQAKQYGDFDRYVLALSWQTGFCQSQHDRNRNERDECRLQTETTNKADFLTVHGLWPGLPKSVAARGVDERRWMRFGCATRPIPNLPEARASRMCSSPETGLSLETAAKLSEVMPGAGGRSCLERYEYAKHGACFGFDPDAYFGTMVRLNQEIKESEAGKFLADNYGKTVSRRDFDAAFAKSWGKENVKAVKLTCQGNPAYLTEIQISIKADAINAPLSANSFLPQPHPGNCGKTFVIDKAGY
Sequence of eosinophil-derived neurotoxin (EDN) (P10153 28-161): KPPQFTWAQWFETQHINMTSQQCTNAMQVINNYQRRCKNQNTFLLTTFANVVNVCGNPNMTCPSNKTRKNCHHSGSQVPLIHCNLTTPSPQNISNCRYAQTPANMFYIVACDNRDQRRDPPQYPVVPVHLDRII
Sequence of nuclease (P03950 25-147): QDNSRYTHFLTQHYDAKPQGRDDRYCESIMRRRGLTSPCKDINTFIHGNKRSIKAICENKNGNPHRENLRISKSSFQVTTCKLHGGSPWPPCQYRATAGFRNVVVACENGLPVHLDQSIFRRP

Structure (SMILES)	Ki (nuclease)	inhibition of RNase (RNA intactness) (bovine RNase A [1])	protection of total RNA from degradation (diluted pancreas lysate; 50 uM BpB)	protection of total RNA from degradation (diluted pancreas lysate; 100 uM inhibitor)	inhibition of RNase (RNA intactness) [2]	inhibition of RNase (RNA intactness) [3]	inhibition of RNase (RNA intactness) (E. coli RNase I)	concentration tolerated with little or no effect on enzymatic DNA cleavage (DNase I)	Ct at 50 ng Input RNA ([4]; RT w RIP, inhibitor 1 uM)	Ct at 50 ng Input RNA ([4]; RT w RIP, inhibitor 10 uM)	Ct at 50 ng Input RNA ([4]; RT w RIP, inhibitor 25 uM)	Ct at 50 ng Input RNA ([4]; RT w RIP, inhibitor 100 nm)	Ct at 50 ng Input RNA ([4]; RT without RIP, inhibitor 1 uM)	Ct at 50 ng Input RNA ([4]; RT without RIP, inhibitor 10 uM)	Ct at 50 ng Input RNA ([4]; RT without RIP, inhibitor 25 uM)	Ct at 50 ng Input RNA ([4]; RT without RIP, inhibitor 100 nm)	Ki (bovine RNase A [5])	% Cleavage (MMLV RT RNase H; inhibitor 8 uM, 36 without inhibitor)	% Cleavage (MMLV RT RNase H; inhibitor 40 uM)
Cc1cc(-c2ccc(/N=N/c3c(N)ccc4cc(S(=O)(=O)O)ccc34)c(C)c2)ccc1/N=N/c1c(N)ccc2cc(S(=O)(=O)O)ccc12 [Benzopurpurin B, 3,3′-di-methylbiphenyl-4,4′-bis(2-amino-naphthylazo-6-sulfo-nate)]	5 µM	effective inhibitor	significant protection	significant protection	effective inhibitor	effective inhibitor	effective inhibitor	up to 10 uM	17.66	19.27	undet	17.27	17.35	17.96	undet	17.39	–	–	–
O=C(Nc1ccc(Cc2ccc(NC(=O)c3cccc([N+](=O)[O-])c3)c(C(=O)O)c2)cc1C(=O)O)c1cccc([N+](=O)[O-])c1 [compound 467929, 3,3′-dicarboxy-4,4′-bis(3-ni-trophenylamido)di-phenylmethane]	–	–	–	–	–	–	–	–	–	–	–	–	–	–	–	–	~12 µM	42%	8%
